{"source": "patent US20220193060A1", "about": "“Inhibition of IL-1 Induced Inflammation” (THIOLAB, LLC., priority 2019, published 2022)", "key": {"IL-10": {"system": "IL-10", "assay": "LPS-stimulated macrophages, IL-10 ELISA", "format": "cell-based, murine", "conditions": "CPDS (e.g., 50 μM) 90 minutes before LPS (10 ug/ml), 24 to 48 hours", "procedure": "(§1) An in vitro model of inflammation mediated by macrophages is used. Primary macrophages isolated from humans or non-human species (e.g., mice or rats) were used. A murine macrophage cell line RAW264.7 (CCRL-2278) was also used. Macrophages are treated with CPDS. […] Then the effect of CPDS on inflammation is assessed by comparing the levels of […] mediators IL-6 and IL-10. IL-10 and IL-6 were determined by ELISA. The level of IL-6 and IL-10 were compared to the level prior to CPDS treatment."}, "RAW 264.7 cells": {"system": "RAW 264.7 cells", "assay": "Cell viability of RAW 264.7 cells", "format": "cell-based", "conditions": "murine RAW 264.7 cells"}, "[1]": {"conditions": "cited from earlier work"}, "IL-6": {"system": "IL-6", "assay": "LPS-stimulated macrophages, IL-6 ELISA", "format": "cell-based, murine", "procedure": "as §1"}, "colonic polyps": {"system": "colonic polyps", "assay": "Case: oral CPDS for colonic polyps", "format": "in vivo, human", "conditions": "person; oral 140 mg per day; 1, 3, 9, and 10 months", "procedure": "An individual was diagnosed with colon neoplasia. About one month after the initial diagnosis, the individual underwent semi colotomy at which time about 45 cm of their colon was removed. […] The polyps were cauterized at that time. About one month later, the individual began treatment with CPDS which was administered orally at a dose of 140 mg per day."}, "[2]": {"system": "non-malignant intraductal breast hyperplasia", "assay": "Case: oral CPDS for breast hyperplasia", "format": "in vivo, human", "procedure": "An individual, diagnosed with non-malignant intraductal breast hyperplasia on the upper left quadrant of the left breast was treated with CPDS. […] CPDS was administered in 99.7% pure form in capsules without excipients."}, "IL-1RA": {"system": "IL-1RA", "assay": "human IL-1RA (receptor antagonist) ELISA, THP-1 supernatant", "format": "cell-based", "procedure": "Methodology: The study included replicated tests of IL-1β levels with and without CPDS, as well as reference testing of untreated cells and cells treated with lactoferrin and clobetasol. A third test was conducted of IL-1 receptor […] (IL-1RA) receptor, to assist in distinguishing whether reductions in IL-1β levels were associated with secretion or receptor blocking (via the receptor antagonist). Cell viability studies were conducted for both sets of tests. 1. THP-1 cells were grown in (RPMI+10% FBS, 10 mM HEPES, 1 mM Sodium Pyruvate, and 0.05 mM 2-Mecaptpethanol) to P8. 2. Cells were plated at 30,000 cells per well in 120 ul with Media+20 ng/ml PMA+2× Genta. 3. […] Cells were treated according to plan below. 5. Cells were incubated for three more days at 37° C. and 5% CO2. 6. Cell supernatant were collected and ELISA was measured for IL-1RA, IL-1α, and IL-1β. 7. Plate was read at 490 nm until O.D reached 1.5. In order to determine whether the reduction in IL-1β was from blocking of secretion or from blocking of the receptor, a human IL-1RA (receptor antagonist) ELISA test was performed."}, "poison oak": {"system": "poison oak", "assay": "Case: topical CPDS for poison oak exposure", "format": "in vivo, human", "procedure": "An individual was exposed to poison oak on their left arm through physical contact. They developed a rash and other symptoms of inflammation such as redness, itching, burning sensation, and swelling. The individual was treated using topical application a cream containing 1% CPDS by weight. The cream was applied every two hours on the first day, and thereafter two to three times a day. The cream contained water, mineral oil, stearic acid, triethanolamine, propylene glycol, glyceryl stearate, stearyl alcohol, dirnethicone, isopropyl palmitate, cetyl alcohol, lactic acid, retinyl acetate, tocopheryl acetate, hydrolyzed collagen, fragrance, methylparaben, and O&C red #33. The individual was treated alternatively with 1% CPDS by weight in an ointment containing white petroleum and mineral oil."}, "arthritic psoriasis": {"system": "arthritic psoriasis", "assay": "Case: oral CPDS for arthritic psoriasis", "format": "in vivo, human", "conditions": "oral 140 mg/day, 4 days a week", "procedure": "The patient was a person. Their disease began 1 year previously. Their main complaint was pain in their right wrist, which prevented them from using their right hand and arm; they had bothersome itching cutaneous psoriatic lesions. Treatment at the time consisted of cortisone (5 mg/day) and non-steroidal anti-inflammatory drugs and weekly administrations of methotrexate (MTX) 5 mg/week. The side effects of MTX were severe stomach, throat, and mouth lesions, nightmares, visual hallucinations, and dizziness. The patient began taking oral CPDS 90 days previous (140 mg/day), 4 days a week. Within a few days, the side effects of MTX became much milder, and their immune defenses increased. Instead of catching a cold, as they had often, that lasted for weeks and needed antibiotics, their colds were much more brief normal duration."}, "[3]": {"conditions": "IV doses up to 300 mg/kg (1 mM)"}}, "note": "“Also recorded” adds a separate entry of the source.", "data": [{"smiles": "O=C(O)c1ccc(SSc2ccc(C(=O)O)cn2)nc1", "note": "[CPDS, 6,6′-dithiodinicotinic acid]", "values": [{"measurement": "expression level of IL-10", "setting": "IL-10", "value": "dramatically reduced"}, {"measurement": "cytotoxicity (cell viability)", "setting": "RAW 264.7 cells", "value": "no cytotoxicity"}, {"measurement": "kidney or liver weight", "setting": "[1]; [3]", "value": "slight increase"}, {"measurement": "lethality", "setting": "[1]; [3]", "value": "not fatal"}, {"measurement": "tolerability", "setting": "[1]; doses up to 300 mg/kg (1 mM) intravenous", "value": "tolerated"}, {"measurement": "IL-6 levels / expression", "setting": "IL-6; FIG. 3, macrophages inflamed by LPS, dosage series of CPDS", "value": "dramatically reduced; also recorded: concentration dependent diminution"}, {"measurement": "expression level of IL-6", "setting": "IL-6; macrophages, CPDS (e.g., 50 μM) 90 minutes before LPS (10 ug/ml), 24 to 48 hours", "value": "dramatically reduced"}, {"measurement": "activity on IL-6 compared with DEX", "setting": "IL-6; murine RAW 264.7 cells, LPS", "value": "more active"}, {"measurement": "secretion of IL-6", "setting": "IL-6; murine RAW 264.7 cells, pre-treatment prior to LPS", "value": "drastically reduced"}, {"measurement": "growth of polyps at check-up visits", "setting": "colonic polyps", "value": "no new growth"}, {"measurement": "pain in breast and axilla", "setting": "[2]; after commencing oral 140 mg per day", "value": "subsided within two days"}, {"measurement": "pain following discontinuation of CPDS", "setting": "[2]; after discontinuation", "value": "returned within two to three days"}, {"measurement": "side effect", "setting": "[2]; oral 140 mg per day", "value": "No side effect"}, {"measurement": "growth of breast hyperplasia (mammograms)", "setting": "[2]; person, oral 140 mg per day, forty-eight months", "value": "stopped growing"}, {"measurement": "reduction of IL-1RA", "setting": "IL-1RA; 100 μM", "value": 60, "unit": "%"}, {"measurement": "reduction of IL-1RA", "setting": "IL-1RA; 200 μM", "value": 76, "unit": "%"}, {"measurement": "effect on IL-1RA production", "setting": "IL-1RA; all concentrations lower than 100 μM", "value": "did not affect; also recorded: no effect"}, {"measurement": "itching and burning", "setting": "poison oak; person, topical cream or ointment with 1% CPDS by weight", "value": "dissipated immediately"}, {"measurement": "recurrence of symptoms", "setting": "poison oak; topical 1% CPDS by weight", "value": "did not recur"}, {"measurement": "redness and swelling", "setting": "poison oak; topical 1% CPDS by weight", "value": "disappeared in about one week"}, {"measurement": "spread of rash to other parts of the body", "setting": "poison oak; topical 1% CPDS by weight", "value": "did not spread"}, {"measurement": "immune defenses", "setting": "arthritic psoriasis", "value": "increased"}, {"measurement": "function of right hand and wrist", "setting": "arthritic psoriasis; 90 days", "value": "regained function"}, {"measurement": "side effects of MTX", "setting": "arthritic psoriasis; person, within a few days", "value": "much milder"}]}]}
